Results: patent publication US4929718A, “Synthetic noxiustoxin related peptides” (Universidad Nacional Autonoma De Mexico, priority 1987, dated 1990)
Ends that are not written are not given here.

Columns and labels:
BALB/c mice = BALB/c mice immunized for two months, immunodiffusion against NTX 1-39 coupled to MSA, FIG. 3
From the text: A group of ten mice were immunized with each peptide and a second group of mice were immunized with each peptide coupled to mouse serum albumin as a carrier molecule.

potassium channel = assay: voltage-clamp study of potassium channel blockade in dorsal root ganglion cells; assay type: cell-based; conditions: concentrations of up to 100 micromolar, chick embryo dorsal root ganglion cells
From the text: (§1) The mechanism of action of all synthetic peptides was verified by three independent essays: "in vivo" challenge by injection of albino mice (strain CD1) with different amounts of synthetic peptides; liberation of radioactive (tritiated) gamma-amino-butyric acid from mouse brain synaptosomes; and confirmation of the results with electrophysiological experiments, through voltage-clamp technique, in chick embryo dorsal root ganglion cells maintained in "in vitro" culture.

mouse brain synaptosomes = assay: release of tritiated GABA from mouse brain synaptosomes; assay type: cell-based; conditions: for effect on GABA (neurotransmitter) release: mouse brain synaptosomes preloaded with 3H-GABA, FIG. 2
From the text: as §1
In the experiments involving release of neurotransmitters, mouse brain synaptosomes were preloaded with radioactive gamma-amino-butyric acid (2, 3, 3H-GABA) and were placed in Millipore filters ([…]) in perfusion chambers, each one containing 0.2 to 0.3 mg. of synaptosomal protein. The fractions from the perfusate (0.5 ml. each) were collected by means of a peristaltic pump at one minute intervals. After 6 minutes, a solution containing synthetic polypeptides was added to the experimental chambers and the radioactivity release was counted in an apparatus for measuring radioisotopes. […] The liberation of GABA per minute is expressed as a percentage of the total radioactivity present in the synaptosomes at the beginning of the experiment.

albino mice (strain CD1) = assay: "in vivo" challenge / lethality tests of synthetic peptides by injection of mice; conditions: for lethality test outcome: mouse, in vivo
[1] = system: mice challenged with Noxiustoxin; conditions: challenge with effective lethal dose of Noxiustoxin (150 g per mouse)
[2] = dose 200 g (so in the source), intraventricularly

## Methionine-Asparagine-Glycine-Lysine-Cysteine-Lysine-Cysteine-Tyrosine-Asparagine-Asparagine [NTX 30-39]
BALB/c mice
  immunogenicity: immunogenic
Potassium channel
  change in the potassium currents: no change

## Noxiustoxin (TIINVKCTSPKQCSKPCKELYGSSAGAKCMNGKCKCYNN; UniProt P08815 1-39, looked up) [Native NTX]
Mouse brain synaptosomes
  effect on GABA (neurotransmitter) release: increases neurotransmitter release
Albino mice (strain CD1); dose of 40 g per 20 grams of mouse body weight
  intoxication symptoms and outcome: generally produces death
Albino mice (strain CD1)
  lethality test outcome: Toxic
Albino mice (strain CD1); ip
  lethality test outcome: Toxic
Albino mice (strain CD1); sc
  lethality test outcome: Toxic

## TIINVKCTS [NTX 1-9, Threonine-Isoleucine-Isoleucine-Asparagine-Valine-Lysine-Cysteine-Threonine-Serine]
Albino mice (strain CD1); dose 100 g (so in the source), intraventricularly
  time to death: ≤ 20 h
Albino mice (strain CD1); [2]
  time to convulsions: ≤ 12 min
  time to death: < 0.333 h

## Threonine-Isoleucine-Isoleucine-Asparagine-Valine-Lysine-Cysteine-Threonine-Serine-Proline-Lysine-Glutamine-Cysteine-Serine-Lysine-Proline-Cysteine-Lysine-Glutamic Acid-Leucine [NTX 1-20]
Mouse brain synaptosomes
  effect on GABA (neurotransmitter) release: increases neurotransmitter release

## Threonine-Isoleucine-Isoleucine-Asparagine-Valine-Lysine-Cysteine-Threonine-Serine-Proline-Lysine-Glutamine-Cysteine-Serine-Lysine-Proline-Cysteine-Lysine-Glutamic Acid-Leucine-Tyrosine-Glycine-Serine-Serine-Alanine-Glycine-Alanine-Lysine-Cysteine-Methionine-Asparagine-Glycine-Lysine-Cysteine-Lysine-Cysteine-Tyrosine-Asparagine-Asparagine [NTX 1-39]
BALB/c mice
  immunogenicity: immunogenic
[1]
  survival of immunized population: more than 75%
Mouse brain synaptosomes; excitable membranes such as brain synaptosomes
  blockade of potassium permeability / potassium channels: blocks potassium permeability

## Tyrosine-Glycine-Serine-Serine-Alanine-Glycine-Alanine-Lysine-Cysteine-Methionine-Asparagine-Glycine-Lysine-Cysteine-Lysine-Cysteine-Tyrosine-Asparagine-Asparagine [NTX 21-39]
BALB/c mice
  immunogenicity: immunogenic
